Measured values taken from patent US20080145893A1, “Method for producing a recombinant protein at high specific productivity, high batch yield and high volumetric yield by means of transient transfection” (EXCELLEGENE SA, priority 2006, published 2008).

Assays:
HEK293E cells [1] = assay: Influence of 2-aminopurine on IgG batch yield (ELISA) of transiently transfected cells; type: cell-based; conditions: with 3 mmol/l sodium butyrate, day 18
CHO DG44 cells = assay: Influence of temperature and sodium butyrate on IgG batch yield (ELISA) of transiently transfected cells; type: cell-based; conditions: 2 mmol/l NaBut, peak value during 18 day cultivation
Experimental: After that time, 18 ml of ProCHO5 medium were added. The cells were then equally distributed into 4 new 50-ml filter tubes (i.e., 5 ml of cell suspension in each tube) and treated as follows:
Tubes 8.1 and 8.3: Addition of sodium butyrate to a final concentration of 2 mmol/l
Tubes 8.2 and 8.4: No addition of sodium butyrate.

HEK293E cells [2] = assay: Influence of sodium butyrate on IgG batch yield (ELISA) of transiently transfected cells; conditions: day 14

Compound	Batch yield (HEK293E cells [1]; 5 mmol/l 2-aminopurine) [mg/L]	Batch yield (HEK293E cells [1]; 10 mmol/l 2-aminopurine) [mg/L]	Maximum batch yield (CHO DG44 cells; 31° C.) [mg/L]	Maximum batch yield (CHO DG44 cells; 37° C.) [mg/L]	Batch yield (HEK293E cells [2]; 1 mmol/l NaBut) [mg/L]	Batch yield (HEK293E cells [2]; 2 mmol/l NaBut) [mg/L]	Batch yield (HEK293E cells [2]; 3 mmol/l NaBut) [mg/L]	Batch yield (HEK293E cells [2]; 6 mmol/NaBut) [mg/L]	Batch yield (HEK293E cells [2]; 12 mmol/l NaBut) [mg/L]
Nc1ncc2[nH]cnc2n1 [2-aminopurine]	628	708	–	–	–	–	–	–	–
CCCC(=O)[O-].[Na+] [NaBut, sodium butyrate]	–	–	231	218	419	632	673	447	288
